Experimental data published in publication PMC9102038 (International Journal of Molecular Sciences, 2022).
Read-outs that look alike come from different tables or passages of the source.

Columns and labels:
human PPARα-LBD [1] = target: T1, human PPARα-LBD (Homo sapiens, UniProt Q07869); assay: TR-FRET SRC1 coactivator peptide recruitment assay, PPARα-LBD
T1 sequence (Q07869 200-468): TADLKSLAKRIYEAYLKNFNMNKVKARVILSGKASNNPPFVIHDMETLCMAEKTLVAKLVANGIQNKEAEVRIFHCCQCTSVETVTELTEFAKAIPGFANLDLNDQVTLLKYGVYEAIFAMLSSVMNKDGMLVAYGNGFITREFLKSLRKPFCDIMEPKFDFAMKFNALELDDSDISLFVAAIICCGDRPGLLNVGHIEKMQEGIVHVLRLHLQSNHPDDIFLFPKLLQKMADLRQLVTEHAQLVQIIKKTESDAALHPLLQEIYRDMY

human PPARα-LBD [2] = target: T1, human PPARα-LBD; assay: TR-FRET PGC1α coactivator peptide recruitment assay, PPARα-LBD
[3] = target: T2, GAL4–human PPARα-LBD chimera (Homo sapiens, UniProt Q07869); assay: GAL4–hPPARα-LBD dual luciferase transactivation assay in COS-7 cells
T2 sequence (Q07869 239-466 limits assumed): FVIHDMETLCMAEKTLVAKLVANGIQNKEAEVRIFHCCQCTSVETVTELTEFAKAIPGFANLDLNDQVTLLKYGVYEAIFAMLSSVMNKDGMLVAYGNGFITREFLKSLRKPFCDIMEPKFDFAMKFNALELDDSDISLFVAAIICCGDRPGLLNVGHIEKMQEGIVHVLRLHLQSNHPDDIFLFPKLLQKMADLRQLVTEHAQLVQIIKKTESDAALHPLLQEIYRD

human PPARγ-LBD [4] = target: T3, human PPARγ-LBD (Homo sapiens, UniProt P37231); assay: TR-FRET SRC1 coactivator peptide recruitment assay, PPARγ-LBD
T3 sequence (P37231 203-477 isoform P37231-2): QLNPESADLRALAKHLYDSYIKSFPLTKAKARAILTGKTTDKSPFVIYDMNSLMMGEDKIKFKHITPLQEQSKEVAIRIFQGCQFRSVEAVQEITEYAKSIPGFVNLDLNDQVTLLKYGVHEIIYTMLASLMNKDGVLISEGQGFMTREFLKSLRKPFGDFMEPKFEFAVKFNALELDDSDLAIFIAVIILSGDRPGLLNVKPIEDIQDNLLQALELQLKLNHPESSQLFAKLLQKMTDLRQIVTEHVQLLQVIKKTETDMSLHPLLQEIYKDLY

human PPARγ-LBD [5] = target: T3, human PPARγ-LBD; assay: TR-FRET PGC1α coactivator peptide recruitment assay, PPARγ-LBD
[6] = target: T4, GAL4–human PPARγ-LBD chimera (Homo sapiens, UniProt P37231); assay: GAL4–hPPARγ-LBD dual luciferase transactivation assay in COS-7 cells; settings: for efficacy, PPARγ-LBD-mediated transactivation: maximal effect of GW1929 (1 µM) as 100%
T4 sequence (P37231 238-503 limits assumed): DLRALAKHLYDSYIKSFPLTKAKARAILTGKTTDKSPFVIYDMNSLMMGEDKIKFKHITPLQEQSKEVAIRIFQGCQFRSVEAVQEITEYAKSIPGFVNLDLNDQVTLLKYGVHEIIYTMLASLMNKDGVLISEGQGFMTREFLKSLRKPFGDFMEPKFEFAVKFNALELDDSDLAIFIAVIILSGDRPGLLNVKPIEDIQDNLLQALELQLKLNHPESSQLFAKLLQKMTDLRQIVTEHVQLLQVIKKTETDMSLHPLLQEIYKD

PPARδ-LBD [7] = target: T5, PPARδ-LBD (Homo sapiens, UniProt Q03181); assay: TR-FRET SRC1 coactivator peptide recruitment assay, PPARδ-LBD
T5 sequence (Q03181 170-441): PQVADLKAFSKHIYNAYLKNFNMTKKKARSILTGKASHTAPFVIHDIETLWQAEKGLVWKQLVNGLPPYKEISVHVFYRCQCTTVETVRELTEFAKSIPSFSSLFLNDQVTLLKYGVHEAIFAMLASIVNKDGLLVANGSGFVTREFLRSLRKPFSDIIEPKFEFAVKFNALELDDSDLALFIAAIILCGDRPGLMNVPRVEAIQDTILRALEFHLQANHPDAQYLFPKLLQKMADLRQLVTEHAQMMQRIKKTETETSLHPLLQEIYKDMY

PPARδ-LBD [8] = target: T5, PPARδ-LBD; assay: TR-FRET PGC1α coactivator peptide recruitment assay, PPARδ-LBD
[9] = target: T6, GAL4–human PPARδ-LBD chimera (Homo sapiens, UniProt Q03181); assay: GAL4–hPPARδ-LBD dual luciferase transactivation assay in COS-7 cells; settings: for efficacy, PPARδ-LBD-mediated transactivation: maximal effect of GW501516 (0.02 µM) as 100%
T6 sequence (Q03181 211-439 limits assumed): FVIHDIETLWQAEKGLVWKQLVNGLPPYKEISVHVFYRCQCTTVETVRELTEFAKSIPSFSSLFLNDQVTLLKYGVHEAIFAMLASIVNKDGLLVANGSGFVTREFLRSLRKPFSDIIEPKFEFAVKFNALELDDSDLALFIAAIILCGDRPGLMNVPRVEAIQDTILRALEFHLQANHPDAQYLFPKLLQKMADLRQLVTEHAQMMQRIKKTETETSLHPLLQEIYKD

PPARδ-LBD [10] = target: T5, PPARδ-LBD; assay: Circular dichroism thermostability assay, PPARδ-LBD; assay type: binding; design: His-tag (pET28a) (N, cleaved yes); made in house; host or cells: E. coli Rosetta (DE3) pLysS; settings: CD at 222 nm, 10 µM protein, versus 0.1% DMSO
Description: Ligand-induced alterations in Tm values at 222 nm were investigated as types of reflection of α-helical stable structures of PPARs because PPAR ligand binding induces stabilization of the LBP [23, 24].
PPARα/δ/γ-LBD proteins (10 µM) were incubated with different concentrations of ligands in buffer A. CD spectra were monitored within 200–260 nm at increasing temperatures from 30 °C to 70 °C (2 °C/min) using a J-1500 spectropolarimeter equipped with a PTC-510 thermal controller (JASCO, Tokyo, Japan). […] The thermal stability of PPARs was investigated by continuously monitoring the ellipticity changes at 222 nm during thermal denaturation, and a single-site sigmoidal dose-response curve fitting program (Prism 5) was used to obtain the melting temperature (Tm) that corresponds to the midpoint of the denaturation process. The ligand-induced increases in Tm values are defined as ∆Tm.

[11] = single dose (200 mg) of bezafibrate; read-out: maximal plasma concentration (Cmax); cited from earlier work
PPARα = tested on: PPARα; design: method as in PMID 14982965; settings: read-out: EC50, PPARα transactivation, previous experiments; cited from earlier work
PPARδ = tested on: PPARδ; design: method as in PMID 14982965; settings: read-out: EC50, PPARδ transactivation, previous experiments; cited from earlier work
PPARγ = tested on: PPARγ; design: method as in PMID 14982965; settings: read-out: EC50, PPARγ transactivation, previous experiments; cited from earlier work
[12] = COS-7 cells, maximal effect of GW7647 (0.1 µM) as 100%

Row | Molecule | EC50 (PPARδ-LBD [7]) | EC50 (PPARδ-LBD [8]) | efficacy, PPARα-LBD-mediated transactivation [3, 12] | EC50 [9] | efficacy, PPARγ-LBD-mediated transactivation ([6]; COS-7 cells) | EC50 (human PPARγ-LBD [4]) | EC50 (human PPARγ-LBD [5]) | efficacy, PPARδ-LBD-mediated transactivation ([9]; COS-7 cells) | EC50 [6] | also measured
1 | CC(C)(Sc1ccc(CCN(CCCCC2CCCCC2)C(=O)NC2CCCCC2)cc1)C(=O)O [GW7647] |  |  |  |  |  |  |  |  |  | maximal effect, SRC1 recruitment to PPARα-LBD (× of the basal activity) (human PPARα-LBD [1]; at 1 µM): 6.12 ×; maximal effect, PGC1α recruitment to PPARα-LBD (× of the basal activity) (human PPARα-LBD [2]; at 1 µM): 8.87 ×; maximal effect, PPARα-LBD-mediated transactivation (× of the basal activity) ([3]; COS-7 cells, at 0.1 µM): 5.73 ×
2 | GW1929 |  |  |  |  |  |  |  |  |  | maximal effect, SRC1 recruitment to PPARγ-LBD (× of the basal activity) (human PPARγ-LBD [4]; at 1 µM): 9.26 ×; maximal effect, PGC1α recruitment to PPARγ-LBD (× of the basal activity) (human PPARγ-LBD [5]; at 1 µM): 5.80 ×; maximal effect, PPARγ-LBD-mediated transactivation (× of the basal activity) ([6]; COS-7 cells, at 1 µM): 2.26 ×
3 | CC(C)(Oc1ccc(CCNC(=O)c2ccc(Cl)cc2)cc1)C(=O)O [bezafibrate] | 31.8 µM |  |  | 86.7 µM | 77.1% | 76 µM | 48.9 µM | 15.2% | 178 µM | Cmax [11]: 20.4 µM; EC50 (PPARα): 25 µM; EC50 (PPARδ): 95 µM; EC50 (PPARγ): > 100 µM; efficacy, PPARα-LBD-mediated transactivation [3]: 93.6%

The next lines start with results.

Row | EC50 (PPARδ-LBD [7]) | EC50 (PPARδ-LBD [8]) | efficacy, PPARα-LBD-mediated transactivation [3, 12] | EC50 [9] | efficacy, PPARγ-LBD-mediated transactivation ([6]; COS-7 cells) | Molecule | EC50 (human PPARγ-LBD [4]) | EC50 (human PPARγ-LBD [5]) | efficacy, PPARδ-LBD-mediated transactivation ([9]; COS-7 cells) | EC50 [6] | also measured
4 | 4.82 µM | 6.11 µM | 107% | 1.39 µM | 119% | CC[C@@H](Oc1cccc(CN(CCCOc2ccc(OC)cc2)c2nc3ccccc3o2)c1)C(=O)O [pemafibrate] | > 10 µM | 9.7 µM | 11.3% | > 5 µM | 
5 | > 500 µM | > 100 µM | 104% | > 500 µM | 87.7% | CC(C)(Oc1ccc(C(=O)c2ccc(Cl)cc2)cc1)C(=O)O [fenofibric acid] |  |  |  |  | EC50 (human PPARα-LBD [1]): 9.87 µM; EC50 (human PPARα-LBD [2]): 20.9 µM; PGC1α recruitment to PPARδ-LBD (in words) (PPARδ-LBD [8]; TR-FRET): did not recruit PGC1α; EC50 [3]: 9.47 µM; PPARδ-LBD-mediated transactivation (in words) ([9]; COS-7 cells): did not induce transactivation; effect on Tm of PPARδ-LBD (thermostability, in words) (PPARδ-LBD [10]): increased thermostability
